This passage reports EC50 and IC50 results from patent US20240239790A1, “7-Morpholino-1,6-Naphthyridin-5-yl Derivatives and Pharmaceutical Compositions Thereof Useful as DNA-PK Inhibitor” (adMare Therapeutics Society, priority 2021, published 2024).

Assay [1] relates to pDNA-PK induction in HCT116 tumour spheroids. Kind of assay: Multicellular tumour spheroid + radiation, pDNA-PK (ser2056) inhibition, immunohistochemical endpoint, HCT116. Type of assay: cell-based. To be noted: 20 Gy, 20% O2. How it is done: Multicellular tumour spheroids determination of compound inhibition of pDNA-PK induction following radiation. Tumour spheroids were grown to approximately 0.5 mm in diameter and irradiated with 20 Gy in combination with inhibitor test compounds to determine their potency. Inhibitor concentration for 50% reduction in pDNA-PK induction (IC50) was determined via immunohistochemical staining in spheroid cryosections taken 2 hours following radiation.
Spheroid+radiation pDNA-PK. Radiation: 20 Gy. Drug: serial dilution 5 or 10 μM down to 3.5 nM (11 wells). Spheroids: 3-6 spheroids per well (300-500 μm diameter). 20% 02 and 5% CO2. 96 well plate format.
Protocol: pre-incubate 1 hours with drug, irradiate with 20 Gy, post-incubate 2 hours with drug, freeze and cryosection ×3 replicates.
Endpoint: fluorescent immunostin pDNA-PK ser2056 and image on microscope.
Analysis: determine EC50 concentration that decreases pDNA-PK induction by 50% after radiation.
Multicellular tumour spheroids determination of compound inhibition of pDNA-PK induction following radiation. Tumour spheroids were grown to approximately 0.5 mm in diameter and irradiated with 20 Gy in combination with inhibitor test compounds to determine their potency. Inhibitor concentration for 50% reduction in pDNA-PK induction (IC50) was determined via immunohistochemical staining in spheroid cryosections taken 2 hours following radiation. For cell survival endpoint 8 Gy radiation was used and 3 hours following radiation spheroids were dissociated, counted and plated for colony forming endpoint.
Spheroid+radiation pDNA-PK. Radiation: 20 Gy. Drug: serial dilution 5 or 10 μM down to 3.5 nM (11 wells). Spheroids: 3-6 spheroids per well (300-500 μm diameter). 20% 02 and 5% CO2. 96 well plate format. Endpoint: fluorescent immunostain pDNA-PK ser2056 and image on microscope. Analysis: determine EC50 concentrations that decreases pDNA-PK induction by 50% after irradiation.
Multicellular tumour spheroids were used to determine potency of test compounds in a 3D tissue environment using inhibition of pDNA-PK induction following radiation or cell survival as the endpoint. For the pDNA-PK endpoint HCT116 or FaDU tumour spheroids were grown to approximately 0.5 mm in diameter and irradiated with 20 Gy in combination with inhibitor test compounds to determine their potency. Experiments were carried out in 96 well plates containing 0.7 mls of MEM media containing 10% FBS and 10 mM glucose under 20% O2 & 5% CO2 at 37° C. Following dilution of compounds 1:1000 from DMSO stocks, compounds were serially diluted from 10 μM down to 3.5 nM and 5-10 spheroids added. 96 well plates were constantly stirred to avoid spheroids settling during the course of the experiment. The inhibitor concentration for 50% reduction in pDNA-PK induction (EC50) was determined via immunohistochemical staining in spheroid cryosections taken 2 hours following radiation using anti-pDNA-PK (ser 2056) and fixed immediately in formalin following sectioning. For cell survival endpoint 8 Gy radiation was used and, 3 hours following radiation, spheroids were dissociated, counted and plated for colony forming endpoint. Data presented in the table compound potency as EC50 [μM].

The target in a further assay is T1, DNA-PK (Homo sapiens, UniProt P78527).
T1 construct: purchased Invitrogen PR9107A
The assay is described as follows: DNA-PK Assay for Biochemical Enzymatic Inhibition (ADP Glo Kinase assay). To be noted: DNA-PK enzyme, Table 1. How it is done:
A biochemical assay was performed to identify IC50 values against DNA-PK activity in a two-step reaction with a kinase reaction followed by ADP Glo™ Kinase assay Kit (Promega V9102).
Three-fold serial dilutions of compounds in DMSO were prepared in kinase assay buffer (50 mM HEPES pH 7.5, 20 mM MgCl2, 100 mM KCl, 50 μM DTT, 10 μg/ml calf thymus DNA, 0.01% Tween 20). Kinase assay buffer was used to prepare compound treatments to 0.02% DMSO (dimethyl sulphoxide) content. DMSO controls were prepared to produce a maximum and minimum luminescence signal for normalization. Substrate (Anaspec, AS-60210-5) and ATP (Promega V9102) and ATP mix was prepared by dilution in kinase assay buffer for 434.4 μM and 64.4 μM final assay concentrations, respectively. Compounds and control were added to 25 ng DNA-PK enzyme (Invitrogen, PR9107A) diluted in kinase buffer in assay plate (Corning 267459) and incubated for 15 minutes at room temperature prior to addition of substrate and ATP mix.
Throughout the assay, each time a reagent was added to the microplate, it was centrifuged for 1 minute at 1300 rcf. All reagents were added, and incubations carried out at room temperature. The reaction was then incubated for 60 minutes. ADP-ATP standards at 0, 4, 10, 40, 80, and 100% ADP (prepared as specified in the ADP Glo™ Kinase assay kit) were also added to the microplate at a volume equal to the total kinase reaction. The ADP Glo™ Kinase Assay kit was then used to quantify DNA-PK activity: following the 60-minute incubation, a 1:1 volume of ADP Glo reagent was added to all wells, then following a further 45-minute incubation, a 1:1 volume of Kinase Detection Reagent was added to all wells. After this two-step assay, plates were incubated in a Synergy-Neo2 plate reader for 30 minutes with gentle shaking, followed by endpoint luminescent read Luminescence data was normalized by subtracting the background signal and expressing all background-adjusted values as a percentage of the average maximum signal. The data was then expressed as percent inhibition by subtracting from 100% (i.e. maximum luminescent signal will be 0% inhibition) and the resulting data plotted against ten concentration points on a logarithmic scale, using GraphPad Prism. Non-linear regression analysis was performed on each concentration response curve and the log [inhibitor] vs response—variable slope (four parameters) equation was selected to generate IC50 values.
A general note: In ADP-Glo the light output rises with the ADP produced.

The target of assay [2] is T2, DNA-PK phosphorylation at Serine 2056 (Homo sapiens, UniProt P78527).
T2 construct: FaDu cells were purchased from ATCC; host or cells: FaDu
The assay is described as follows: Cellular Assay for Inhibition of DNA-PK Phosphorylation at Serine 2056 in FaDu cells (sandwich ELISA, neocarzinostatin). In kind it is cell-based. The conditions noted are these: pSer2056 DNA-PK, neocarzinostatin 1 μg/mL, Table 1. The essentials: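 pSer2056 and total DNA-PK were measured by sandwich ELISA in BCA-normalised FaDu lysates. Cells had 1 h compound exposure (0.3% DMSO), then 2 h with 1 μg/mL final neocarzinostatin. IC50 was fitted (variable slope) to % inhibition scaled against NCS-stimulated and DMSO-only controls.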
In general terms: In an ELISA, binding on a coated surface is turned into a signal by an enzyme label.

Setting [3] is: Homo sapiens, HCT-116, 2 h, spheroids, Example 8, read-out: Cell line: HCT116 Immunohistochemical endpoint pDNA-PK inhibition EC50.
Setting [4] is: Homo sapiens, HCT-116, 2 hours following radiation, Example 9 Study 2, read-out: Spheroid Cell line: HCT116 Immunohistochemical endpoint pDNA-PK inhibition EC50.
Setting [5] is: Homo sapiens, HCT-116, Spheroid, Cell Line: HCT115 (so in the source), 2 hours following radiation, Example 7, read-out: EC50, Immunohistochemical endpoint, pDNA-PK inhibition.
The mark [6] stands for this setting: 2 hours following radiation, Example 9 Study 2, read-out: Spheroid Cell line: HCT116 Immunohistochemical endpoint pDNA-PK inhibition EC50.
Where [7] appears, read: Spheroid, Cell Line: HCT115 (so in the source), 2 hours following radiation, Example 7, read-out: EC50, Immunohistochemical endpoint, pDNA-PK inhibition.
Where [8] appears, read: spheroids, Example 8, read-out: Cell line: HCT116 Immunohistochemical endpoint pDNA-PK inhibition EC50.

Where two headings read alike, the source gives them in different places.

Usually EC50 stands for the concentration needed to bring the measured effect to its halfway point. As a reminder, the IC50 is the concentration needed to halve the response being measured. As to `CCCS(=O)(=O)NC(=O)c1cnc2cc(N3CCOCC3)nc(O[C@H]3CC[C@@H](n4ccnc4)CC3)c2c1` [Compound 173, 5-(((1s,4s)-4-(1H-imidazol-1-yl)cyclohexyl)oxy)-7-morpholino-N-(propylsulfonyl)-1,6-naphthyridine-3-carboxamide], the EC50 in assay [1] (setting [3]), in assay [1] (setting [4]) and in assay [1] (setting [5]) was 10 to 100 µM throughout. Moreover, the IC50 is 0.001 to 0.01 µM on DNA-PK and 10 to 30 µM in assay [2].

Turning to `CCOC(=O)c1cnc(NC2CCOCC2)nc1N[C@H]1CC[C@@H](Oc2nc(N3CCOCC3)cc3ncccc23)CC1` [Compound 93, Ethyl 4-(((1s,4s)-4-((7-morpholino-1,6-naphthyridin-5-yl)oxy)cyclohexyl)amino)-2-((tetrahydro-2H-pyran-4-yl)amino)pyrimidine-5-carboxylate], the EC50 in assay [1] (setting [4]) and in assay [1] (setting [5]) was 10 to 100 µM in each case. In addition, the IC50 on DNA-PK lay within 0.01 to 0.15 µM; in assay [2], 1 to 10 µM.

In the case of `N=C(N)N[C@H]1CC[C@@H](Oc2nc(N3CCOCC3)cc3ncccc23)CC1` [Compound 16, 1-((1s,4s)-4-((7-morpholino-1,6-naphthyridin-5-yl)oxy)cyclohexyl)guanidine], the EC50 in assay [1] (setting [6]), in assay [1] (setting [7]) and in assay [1] (setting [8]) was 10 to 100 µM throughout. Also, the results for the IC50 (at DNA-PK; in assay [2]) were 0.001 to 0.01 µM and 1 to 10 µM, respectively.

Take `CCOC(=O)c1cnc(N[C@H]2CC[C@@H](Oc3nc(N4CCOCC4)cc4ncccc34)CC2)nc1NC1CCOCC1` [Compound 94, Ethyl 2-(((1s,4s)-4-((7-morpholino-1,6-naphthyridin-5-yl)oxy)cyclohexyl)amino)-4-((tetrahydro-2H-pyran-4-yl)amino)pyrimidine-5-carboxylate]: the EC50 in assay [1] (setting [4]) and in assay [1] (setting [5]) was 1 to 10 µM in each case. Besides, the IC50 on DNA-PK was 0.01 to 0.15 µM; in assay [2], 0.1 to 1 µM.

For the compound `COC(=O)c1cnc2cc(N3CCOCC3)nc(O[C@H]3CC[C@@H](n4ccnc4)CC3)c2c1` [Compound 164, methyl 5-(((1s,4s)-4-(1H-imidazol-1-yl)cyclohexyl)oxy)-7-morpholino-1,6-naphthyridine-3-carboxylate], the EC50 in assay [1] (setting [3]), in assay [1] (setting [4]) and in assay [1] (setting [5]) was 1 to 10 µM throughout. Moreover, the IC50 on DNA-PK lay within 0.001 to 0.01 µM; in assay [2] it was 1 to 10 µM.

Regarding `O=C(COc1cnc(N[C@H]2CC[C@@H](Oc3nc(N4CCOCC4)cc4ncccc34)CC2)nc1)N1CC(O)C1` [Compound 77, 1-(3-Hydroxyazetidin-1-yl)-2-((2-(((1s,4s)-4-((7-morpholino-1,6-naphthyridin-5-yl)oxy)cyclohexyl)amino)pyrimidin-5-yl)oxy)ethan-1-one], the EC50 in assay [1] (setting [4]) and in assay [1] (setting [5]) was 0.5 to 1 µM each time. Moreover, the IC50 on DNA-PK was less than 0.0005 µM; in assay [2], 0.1 to 1 µM.

As to `O=C(Nc1ccccn1)[C@H]1CC[C@@H](Oc2nc(N3CCOCC3)cc3ncccc23)CC1` [Compound 154c, (1S,4S)-4-((7-morpholino-1,6-naphthyridin-5-yl)oxy)-N-(pyridin-2-yl)cyclohexane-1-carboxamide], the EC50 in assay [1] (setting [3]), in assay [1] (setting [4]) and in assay [1] (setting [5]) was 1 to 10 µM in each case. In addition, the values for the IC50 (on DNA-PK; in assay [2]) were 0.001 to 0.01 µM and 0.1 to 1 µM, respectively.

In the case of “5-(((1s,4s)-4-(1H-imidazol-1-yl)cyclohexyl)oxy)-7-morpholino-N-propyl-1,6-naphthyridine-3-carboxamide [Compound 169]”, the EC50 in assay [1] (setting [6]), in assay [1] (setting [7]) and in assay [1] (setting [8]) was 10 to 100 µM in each case. The IC50 on DNA-PK lay in the range of 0.01 to 0.15 µM; in assay [2] it was 1 to 10 µM.

As to `O=C(Nc1ccc(F)cc1)N[C@H]1CC[C@@H](Oc2nc(N3CCOCC3)cc3ncccc23)CC1` [Compound 151, 1-(4-Fluorophenyl)-3-((1s,4s)-4-((7-morpholino-1,6-naphthyridin-5-yl)oxy)cyclohexyl)urea], the EC50 in assay [1] (setting [3]), in assay [1] (setting [4]) and in assay [1] (setting [5]) was 1 to 10 µM each time. The values for the IC50 (on DNA-PK; in assay [2]) were 0.001 to 0.01 µM and 0.1 to 1 µM, respectively.

Regarding `O=C(O)COc1cnc(N[C@H]2CC[C@@H](Oc3nc(N4CCOCC4)cc4ncccc34)CC2)nc1` [Compound 59, 2-((2-(((1s,4s)-4-((7-Morpholino-1,6-naphthyridin-5-yl)oxy)cyclohexyl)amino)pyrimidin-5-yl)oxy)acetic acid], the EC50 in assay [1] (setting [4]) and in assay [1] (setting [5]) was 10 to 100 µM each time. Moreover, the IC50 on DNA-PK was less than 0.0005 µM; in assay [2], 10 to 30 µM.

Take `O=C(COc1cnc(N[C@H]2CC[C@@H](Oc3nc(N4CCOCC4)cc4ncccc34)CC2)nc1)N1CCCC1` [Compound 74, 2-((2-(((1s,4s)-4-((7-Morpholino-1,6-naphthyridin-5-yl)oxy)cyclohexyl)amino)pyrimidin-5-yl)oxy)-1-(pyrrolidin-1-yl)ethan-1-one]: the EC50 in assay [1] (setting [4]) and in assay [1] (setting [5]) was 1 to 10 µM throughout. The results for the IC50 (at DNA-PK; in assay [2]) were 0.0005 to 0.001 µM and 0.1 to 1 µM, respectively.
